Measurements from US20250122147A1, “ARYL CYCLOHEXANEDIONE DERIVATIVE OR SALT THEREOF, PEST CONTROL AGENT CONTAINING SAME, AND METHOD FOR USE THEREOF” (ADEKA Corporation, priority 2021, published 2025).

These compounds were tested on Plutella xylostella (assay: Insecticidal test against Plutella xylostella). Conditions: 500 ppm drug solution; Chinese cabbage seedlings with eggs immersed about 30 sec; six days after immersion; 25° C.
From the text: Six days after the immersion in the drug solution, the number of surviving insects was examined. […] In triplicate using 10 per plot.

SMILES | corrected mortality, rating of assessment
O=C1CC(c2ccc(C(F)(F)F)cc2)CC(O)=C1C(=O)Nc1ccc(S(=O)(=O)C(F)(F)F)cc1 (stereo not drawn) [1-53] | D or higher
Cc1cc(Cl)ccc1NC(=O)C1=C(O)CC(c2ccc(C(F)(F)F)cc2)CC1=O (stereo not drawn) [1-16] | D or higher
C[S+]([O-])c1ccc(C2CC(=O)C(C(=O)Nc3ccc(Cl)cc3)=C(O)C2)cc1 (stereo not drawn) [1-233] | D or higher
O=C1CC(c2ccc(C(F)(F)F)cc2)CC(O)=C1C(=O)Nc1cccc2ccccc12 (stereo not drawn) [1-39] | D or higher
O=C1CC(c2ccc(C(F)(F)F)cc2)CC(O)=C1C(=O)Nc1cccc(Cl)c1 (stereo not drawn) [1-21] | D or higher
O=C1CC(c2ccc(C(F)(F)F)cc2)CC(O)=C1C(=S)Nc1cccc(C(F)(F)F)c1 (stereo not drawn) [1-99] | D or higher
O=C1CC(c2ccc(C(F)(F)F)nc2)CC(O)=C1C(=O)Nc1ccc(Cl)cc1 (stereo not drawn) [1-71] | D or higher
Cc1ccc(C2CC(=O)C(C(=O)Nc3ccc(F)cc3)=C(O)C2)cc1 (stereo not drawn) [1-63] | D or higher
CS(=O)(=O)c1ccc(C2CC(=O)C(C(=O)Nc3ccc(Cl)cc3)=C(O)C2)cc1 (stereo not drawn) [1-232] | D or higher
COc1ccc(NC(=O)C2=C(O)CC(c3ccc(C(F)(F)F)cc3)CC2=O)cc1 (stereo not drawn) [1-8] | D or higher
CSc1ccc(C2CC(=O)C(C(=O)Nc3ccc(F)cc3)=C(O)C2)cc1 (stereo not drawn) [1-208] | D or higher
O=C1CC(c2ccc(C(F)(F)F)cc2)CC(O)=C1C(=O)Nc1c(F)c(F)c(F)c(F)c1F (stereo not drawn) [1-45] | D or higher
Cc1ccccc1C1CC(=O)C(C(=O)Nc2ccc(F)cc2)=C(O)C1 (stereo not drawn) [1-1] | D or higher
Cc1ccc(C2CC(=O)C(C(=O)Nc3ccc(F)cn3)=C(O)C2)cc1 (stereo not drawn) [1-148] | D or higher
O=C1CC(c2ccc(C(F)(F)F)cc2)CC(O)=C1C(=O)Nc1ccc(S(F)(F)(F)(F)F)cc1 (stereo not drawn) [1-184] | D or higher
O=C1CC(c2ccc(C(F)(F)F)cc2)CC(O)=C1C(=O)Nc1ccc([S+]([O-])C(F)(F)F)cc1 (stereo not drawn) [1-52] | D or higher
O=C1CC(c2ccc(C(F)(F)F)cc2)CC(O)=C1C(=O)NC1CC1 (stereo not drawn) [1-144] | D or higher
CSc1ccc(NC(=O)C2=C(O)CC(c3ccc(C(F)(F)F)cc3)CC2=O)cc1 (stereo not drawn) [1-49] | D or higher
N#Cc1ccc(C2CC(=O)C(C(=O)Nc3ccc(F)cc3)=C(O)C2)cc1 (stereo not drawn) [1-61] | D or higher
Cc1ccc(C2CC(=O)C(C(=O)Nc3ccc(F)cc3)=C(O)C2)s1 (stereo not drawn) [1-76] | D or higher
O=C1CC(c2ccc(C(F)(F)F)cc2)CC(O)=C1C(=S)Nc1ccccc1F (stereo not drawn) [1-94] | D or higher
O=C1CC(c2ccc(C(F)(F)F)cc2)CC(O)=C1C(=S)Nc1cccc(F)c1 (stereo not drawn) [1-95] | D or higher
O=C1CC(c2ccc(C(F)(F)F)cc2)CC(O)=C1C(=O)Nc1ccc(F)c(F)c1 (stereo not drawn) [1-19] | D or higher
O=C1CC(c2ccc(C(F)(F)F)c(Cl)c2)CC(O)=C1C(=S)Nc1ccc(C(F)(F)F)cc1 (stereo not drawn) [1-77] | D or higher

SMILES | corrected mortality, rating of assessment
Cn1ccc(NC(=O)C2=C(O)CC(c3ccc(C(F)(F)F)cc3)CC2=O)n1 (stereo not drawn) [1-167] | D or higher
O=C1CC(c2ccc(C(F)(F)F)cc2)CC(O)=C1C(=O)Nc1cccc(C(F)(F)F)c1 (stereo not drawn) [1-30] | D or higher
O=C1CC(c2ccc(C(F)(F)F)nc2)CC(O)=C1C(=O)Nc1ccc(C(F)(F)F)cc1 (stereo not drawn) [1-69] | D or higher
O=C1CC(c2ccc(C(F)(F)F)cc2)CC(O)=C1C(=S)Nc1ccc(F)cn1 (stereo not drawn) [1-108] | D or higher
O=C1CC(c2ccc(SC(F)(F)F)cc2)CC(O)=C1C(=O)Nc1ccc(Cl)cc1 (stereo not drawn) [1-235] | D or higher
O=C1CC(c2ccc(C(F)(F)F)cc2)CC(O)=C1C(=O)Nc1ccc(F)cc1 (stereo not drawn) [1-6] | D or higher
N#Cc1cccc(NC(=O)C2=C(O)CC(c3ccc(C(F)(F)F)cc3)CC2=O)c1 (stereo not drawn) [1-34] | D or higher
O=C1CC(c2ccc(C(F)(F)F)cc2)CC(O)=C1C(=O)Nc1ccc(Oc2ccccc2)cc1 (stereo not drawn) [1-54] | D or higher
CS(=O)(=O)c1ccc(C2CC(=O)C(C(=O)Nc3ccc(F)cn3)=C(O)C2)cc1 (stereo not drawn) [1-165] | D or higher
O=C1CC(c2ccc(C(F)(F)F)cc2)CC(O)=C1C(=O)Nc1cccc([N+](=O)[O-])c1 (stereo not drawn) [1-35] | D or higher
O=C1CC(c2ccc(C(F)(F)F)cc2)CC(O)=C1C(=O)Nc1ccc2c(c1)OCO2 (stereo not drawn) [1-55] | D or higher
NC(=O)c1ccc(C2CC(=O)C(C(=O)Nc3ccc(F)cc3)=C(O)C2)cc1 (stereo not drawn) [1-62] | D or higher
N#Cc1ccc(NC(=S)C2=C(O)CC(c3ccc(C(F)(F)F)cc3)CC2=O)cc1 (stereo not drawn) [1-100] | D or higher
CS(=O)(=O)c1ccc(C2CC(=O)C(C(=O)Nc3ccc(F)cc3)=C(O)C2)cc1 (stereo not drawn) [1-210] | D or higher
O=C1CC(c2ccc(C(F)(F)F)cc2)CC(O)=C1C(=O)Nc1ccc(C(F)(F)F)cn1 (stereo not drawn) [1-142] | D or higher
CSc1ccc(C2CC(=O)C(C(=O)Nc3ccc(Cl)cc3)=C(O)C2)cc1 (stereo not drawn) [1-234] | D or higher
O=C1CC(c2ccc(OC(F)(F)F)cc2)CC(O)=C1C(=O)Nc1ccc(F)cc1 (stereo not drawn) [1-65] | D or higher
O=C1CC(c2ccc(C(F)(F)F)cc2)CC(O)=C1C(=O)NCc1ccccc1 (stereo not drawn) [1-12] | D or higher
O=C1CC(c2ccc(C(F)(F)F)cc2)CC(O)=C1C(=O)Nc1c(F)cccc1F (stereo not drawn) [1-18] | D or higher
Cc1ccc(NC(=O)C2=C(O)CC(c3ccc(C(F)(F)F)cc3)CC2=O)cc1 (stereo not drawn) [1-15] | D or higher
O=C1CC(c2cccs2)CC(O)=C1C(=O)Nc1cccs1 (stereo not drawn) [1-75] | D or higher
CC(=O)c1ccc(NC(=O)C2=C(O)CC(c3ccc(C(F)(F)F)cc3)CC2=O)cc1 (stereo not drawn) [1-36] | D or higher
O=C1CC(c2ccc(C(F)(F)F)cc2)CC(O)=C1C(=O)Nc1ccc(F)nn1 (stereo not drawn) [1-162] | D or higher
O=C1CC(c2ccc(C(F)(F)F)cc2)CC(O)=C1C(=O)NC1CCCCC1 (stereo not drawn) [1-11] | D or higher

SMILES | corrected mortality, rating of assessment
O=C1CC(c2cnco2)CC(O)=C1C(=O)Nc1ccc(F)cc1 (stereo not drawn) [1-223] | D or higher
O=C1CC(c2ccc(S(=O)(=O)C(F)(F)F)cc2)CC(O)=C1C(=O)Nc1ccc(F)cc1 (stereo not drawn) [1-209] | D or higher
O=C1CC(c2ccc(C(F)(F)F)cc2)CC(O)=C1C(=O)Nc1ccc(F)nc1 (stereo not drawn) [1-146] | D or higher
O=C1CC(c2ccc(C(F)(F)F)cc2)CC(O)=C1C(=O)Nc1c(Cl)cccc1Cl (stereo not drawn) [1-23] | D or higher
O=C1CC(c2ccc([N+](=O)[O-])cc2)CC(O)=C1C(=O)Nc1ccc(F)cc1 (stereo not drawn) [1-207] | D or higher
O=C1CC(c2ccc(C(F)(F)F)cc2)CC(O)=C1C(=O)Nc1cccc(F)c1 (stereo not drawn) [1-43] | D or higher
O=C1CC(c2ccc(C(F)(F)F)cc2)CC(O)=C1C(=O)Nc1ncc(F)cn1 (stereo not drawn) [1-155] | D or higher
O=C1CC(c2ccc(C(F)(F)F)cc2)CC(O)=C1C(=S)Nc1ccccc1 (stereo not drawn) [1-93] | D or higher
O=C1CC(c2ccc(Br)cn2)CC(O)=C1C(=S)Nc1ccc(F)cc1 (stereo not drawn) [1-229] | D or higher
O=C1CC(c2ccc(C(F)(F)F)nc2)CC(O)=C1C(=O)Nc1ccnc(F)c1 (stereo not drawn) [1-151] | D or higher
O=C1CC(c2ccc(Cl)s2)CC(O)=C1C(=O)Nc1ccc(F)cc1 (stereo not drawn) [1-145] | D or higher
CC1(c2ccc(C(F)(F)F)cc2)CC(=O)C(C(=S)Nc2ccc(F)cc2)=C(O)C1 (stereo not drawn) [1-140] | D or higher
O=C1CC(c2cc(C(F)(F)F)cc(C(F)(F)F)c2)CC(O)=C1C(=O)Nc1ccc(F)cc1 (stereo not drawn) [1-2] | D or higher
O=C1CC(c2ccc([S+]([O-])C(F)(F)F)cc2)CC(O)=C1C(=O)Nc1ccc(F)cc1 (stereo not drawn) [1-211] | D or higher
O=C1CC(c2ccc(C(F)(F)F)nc2)CC(O)=C1C(=S)Nc1ccc(F)cn1 (stereo not drawn) [1-231] | D or higher
O=C1CC(c2ccc(C(F)(F)F)cc2)CC(O)=C1C(=O)Nc1ccccc1F (stereo not drawn) [1-38, N-(2-fluorophenyl)-5-hydroxy-3-oxo-4′-(trifluoromethyl)-1,2,3,6-tetrahydro-[1,1′-biphenyl]-4-carboxamide] | D or higher
O=C1CC(c2ccc(C(F)(F)F)c(Cl)c2)CC(O)=C1C(=O)Nc1ccc(F)cc1 (stereo not drawn) [1-3] | D or higher
O=C1CC(c2ccc(SC(F)(F)F)cc2)CC(O)=C1C(=O)Nc1ccc(F)cc1 (stereo not drawn) [1-213] | D or higher
O=C1CC(c2ccc3c(c2)OCO3)CC(O)=C1C(=O)Nc1ccc(F)cc1 (stereo not drawn) [1-222] | D or higher
O=C1CC(c2ccc(C(F)(F)F)cc2)CC(O)=C1C(=O)Nc1ccnc(F)c1 (stereo not drawn) [1-147] | D or higher
O=C1CC(c2ccc(C(F)(F)F)cc2)CC(O)=C1C(=O)Nc1cccs1 (stereo not drawn) [1-40] | D or higher
N#Cc1ccc(NC(=O)C2=C(O)CC(c3ccc(C(F)(F)F)cc3)CC2=O)cc1 (stereo not drawn) [1-7] | D or higher
C[S+]([O-])c1ccc(C2CC(=O)C(C(=O)Nc3ccc(F)cc3)=C(O)C2)cc1 (stereo not drawn) [1-212] | D or higher
O=C1CC(c2ccc(C(F)(F)F)cc2)CC(O)=C1C(=O)Nc1ccc(F)cc1F (stereo not drawn) [1-17] | D or higher
